Laboratory results as given in the supplement of paper PMC11451515.

Tests used:
P12-Ichikawa [1] = assay: cell viability relative to DMSO control; higher = less cytotoxic; conditions: HPLM + 10% dialyzed FBS, 48 h
How it was run: (§1)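 NOMO1 or SEM (500 cells/well) or P12-Ichikawa (1000 cells/well) leukemia cells were adapted for at least four passages in each medium. They were seeded in 1536-well plates (5 μl) and pin-dosed with library compounds in DMSO over an 11-point threefold series, 47 μM to 0.79 nM. CellTiter-Glo One luminescence was read after 48 h at 37°C. Viability is the per-plate percentage relative to DMSO wells, with cell-free wells as background.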

SEM cells [2] = assay: as above; conditions: 48 h
How it was run: as §1

NOMO1 = assay: AUC of viability dose-response curve (% viability x log10 dose units); higher = less sensitive; conditions: 48 h
How it was run: (§2)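 Leukemia cells adapted to each medium were seeded at 500 or 1000 cells/well in 1536-well plates and dosed with library compounds in DMSO at 11 threefold doses from 47 μM to 0.79 nM for 48 h at 37°C. CellTiter-Glo One luminescence was normalised per plate to DMSO and cell-free wells, then fitted with a four-parameter log-logistic model over log10 doses. Area under the curve was taken from this fit by the trapezoidal rule, with curves above full viability scaled and curves failing quality control removed.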

P12-Ichikawa [3] = assay: as above; conditions: 48 h
How it was run: as §2

SEM cells [4] = assay: as above; conditions: 48 h
How it was run: as §2

[5] = HPLM + 10% dialyzed FBS, 0.000781 µM
[6] = HPLM + 10% dialyzed FBS, 0.00234 µM
[7] = HPLM + 10% dialyzed FBS, 0.00702 µM
[8] = HPLM + 10% dialyzed FBS, 0.0211 µM
[9] = HPLM + 10% dialyzed FBS, 0.0632 µM
[10] = HPLM + 10% dialyzed FBS, 0.19 µM
[11] = HPLM + 10% dialyzed FBS, 0.569 µM
[12] = HPLM + 10% dialyzed FBS, 1.71 µM
[13] = HPLM + 10% dialyzed FBS, 5.12 µM
[14] = HPLM + 10% dialyzed FBS, 15.4 µM
[15] = HPLM + 10% dialyzed FBS, 46.1 µM
[16] = RPMI 5 mM glucose + 10% dialyzed FBS

| SMILES | cell viability (SEM cells [2]; [5]) | cell viability (SEM cells [2]; [6]) | cell viability (SEM cells [2]; [7]) | cell viability (SEM cells [2]; [8]) | cell viability (SEM cells [2]; [9]) | cell viability (SEM cells [2]; [10]) | cell viability (SEM cells [2]; [11]) | cell viability (SEM cells [2]; [12]) | cell viability (SEM cells [2]; [13]) | cell viability (SEM cells [2]; [14]) | cell viability (SEM cells [2]; [15]) | AUC of viability dose-response curve (NOMO1; HPLM + 10% dialyzed FBS) | AUC of viability dose-response curve (NOMO1; RPMI 5 mM glucose + 10% FBS) | AUC of viability dose-response curve (NOMO1; [16]) | AUC of viability dose-response curve (P12-Ichikawa [3]; HPLM + 10% dialyzed FBS) | AUC of viability dose-response curve (P12-Ichikawa [3]; RPMI 5 mM glucose + 10% FBS) | AUC of viability dose-response curve (P12-Ichikawa [3]; [16]) | AUC of viability dose-response curve (SEM cells [4]; HPLM + 10% dialyzed FBS) | AUC of viability dose-response curve (SEM cells [4]; RPMI 5 mM glucose + 10% FBS) | AUC of viability dose-response curve (SEM cells [4]; [16]) | other results |
| --- | --- | --- | --- | --- | --- | --- | --- | --- | --- | --- | --- | --- | --- | --- | --- | --- | --- | --- | --- | --- | --- |
| COc1cc2nc(N3CCN(C(=O)C4COc5ccccc5O4)CC3)nc(N)c2cc1OC (configuration not stated) | 123% | 125% | 115% | 126% | 122% | 128% | 113% | 132% | 120% | 119% | 91.4% | 439 | 452 | 456 | 457 | 461 | 467 | 469 | 450 | 447 | cell viability (P12-Ichikawa [1]; 0.000781 µM): 122%; cell viability (P12-Ichikawa [1]; 0.00234 µM): 125%; cell viability (P12-Ichikawa [1]; 0.00702 µM): 137%; cell viability (P12-Ichikawa [1]; 0.0211 µM): 127%; cell viability (P12-Ichikawa [1]; 0.0632 µM): 129%; cell viability (P12-Ichikawa [1]; 0.19 µM): 132%; cell viability (P12-Ichikawa [1]; 0.569 µM): 132%; cell viability (P12-Ichikawa [1]; 1.71 µM): 131%; cell viability (P12-Ichikawa [1]; 5.12 µM): 115%; cell viability (P12-Ichikawa [1]; 15.4 µM): 112%; cell viability (P12-Ichikawa [1]; 46.1 µM): 82.3% |
| O=C(CN1C(=O)C2(CCCC2)NC[C@H]1c1cc(F)cc(F)c1)Nc1ccc2c(c1)C[C@@]1(C2)C(=O)Nc2ncccc21 | 109% | 104% | 119% | 139% | 125% | 131% | 132% | 140% | 142% | 114% | 104% | 445 | 459 | 467 | 472 | 466 | 471 | 461 | 463 | 446 | cell viability (SEM cells [2]; RPMI 5 mM glucose + 10% FBS, 0.000781 µM): 123%; cell viability (SEM cells [2]; RPMI 5 mM glucose + 10% FBS, 0.00234 µM): 104%; cell viability (SEM cells [2]; RPMI 5 mM glucose + 10% FBS, 0.00702 µM): 126%; cell viability (SEM cells [2]; RPMI 5 mM glucose + 10% FBS, 0.0211 µM): 142%; cell viability (SEM cells [2]; RPMI 5 mM glucose + 10% FBS, 0.0632 µM): 131%; cell viability (SEM cells [2]; RPMI 5 mM glucose + 10% FBS, 0.19 µM): 136%; cell viability (SEM cells [2]; RPMI 5 mM glucose + 10% FBS, 0.569 µM): 145%; cell viability (SEM cells [2]; RPMI 5 mM glucose + 10% FBS, 1.71 µM): 131%; cell viability (SEM cells [2]; RPMI 5 mM glucose + 10% FBS, 5.12 µM): 135%; cell viability (SEM cells [2]; RPMI 5 mM glucose + 10% FBS, 15.4 µM): 129%; cell viability (SEM cells [2]; RPMI 5 mM glucose + 10% FBS, 46.1 µM): 129% |
